Assay: Solubility checked using 0.1 g of the sample at 25-30° C.
Format: physicochemical
Settings: for Solubility (volume of solvent): 0.1 g of the sample at 25-30° C.
Source text: Polymorphs of a compound differ in physical properties such as crystal structure, dissolution and particle size.

Solubility (volume of solvent) (Acetone) [mL] | Solubility (volume of solvent) (Ethyl acetate) [mL] | Solubility, comparison of the polymorphic forms (Form II compared with Form I of thio intermediate (compound III)) | Solubility (volume of solvent) (Isopropyl acetate) [mL] | Solubility (volume of solvent) (Toluene) [mL] | Structure (SMILES)
4.6 | 12.0 | less soluble than Form I | 13.0 | 15.0 | COc1ccc2[nH]c(SCc3ncc(C)c(OC)c3C)nc2c1 [Form II, 5-methoxy-2-[[(4-methoxy-3,5-dimethyl-2-pyridinyl)-methyl]thio]-1H-benzimidazole]
2.0 | 4.6 |  | 10.0 | 8.4 | COc1ccc2[nH]c(SCc3ncc(C)c(OC)c3C)nc2c1 [Form I, 5-methoxy-2-[[(4-methoxy-3,5-dimethyl-2-pyridinyl)-methyl]thio]-1H-benzimidazole, reference compound]

— patent US8394963B2, “Process for the preparation of esomeprazole magnesium dihydrate” (Cipla Limited, priority 2007, dated 2013)
